Reference: paper PMC10846744, “Cathelicidin peptide analogues inhibit EV71 infection through blocking viral entry and uncoating” (PLOS Pathogens, 2024)
Where no end group is shown, it is not given here.

Assays:
EV71 virions = assay: Viral particle stability thermal release assay (PaSTRY); set-up: species or system enterovirus 71 (EV71); settings: EV71 MOI = 10 pre-incubated with LL-18 or NaCl, SYBR green II, heated 25°C to 80°C; PBS control around 45°C
Protocol: Fig 6 LL-18 stabilizes the viral particles by inhibiting uncoating. (A) EV71 virus (MOI = 10) was pre-incubated with PBS, indicated amount of LL-18 or NaCl for 1 hr and then mixed with SYBR green dyes II before they were heated to indicated temperatures. The fluorescent signals were measured and plotted against temperature. PBS was used as a negative control. (B) EV71 virus (MOI = 10) was pre-incubated with PBS, LL-18, or 12s for 2 hrs. Half of the samples were then treated with 1.5 μg SCARB2 protein and incubated at 37°C for 2 hrs at pH 5.5. Samples were then subjected to ultracentrifugation as detailed in materials and methods. The numbers above represent the fractions collected from top to bottom.
EV71 viruses were preincubated with either PBS, NaCl or the indicated amount of LL-18 at room temperature for 2 hrs, before Sybr green II dye (3× working concentration, Solarbio, China) and RNase inhibitor (1 U/μL, Thermo Scientific) were added. The mixture was heated from 25°C to 80°C with an increment of 0.5°C for 30 seconds, and the fluorescence from SYBR green was monitored with a QuantGene 9600 real-time PCR system (Bioer, China).

[1] = system: EV71 virus-SCARB2 interaction; assay: Virus-SCARB2 co-immunoprecipitation competition; format: binding; settings: SCARB2-Flag 293T lysates incubated with EV71 virus with or without compound, anti-Flag IP, anti-VP1 immunoblotting
Protocol: Fig 5 LL-18 interferes with virus-SCARB2 interaction. (A) Molecular docking model of LL-18 with EV71 virion. […] The amino acid residues of capsid protein interacting with both LL-18 and SCARB2 are indicated (right panel). (B) 293T cells expressing SCARB2-Flag were lysed and cell lysates were incubated with EV71 virus in the absence or presence of the indicated amount of LL-18. Cell lysates were then immunoprecipitated with anti-Flag antibody and the precipitated virus was determined with anti-VP1 antibody. (C) 293T cells expressing Annexin 2-Flag were lysed and cell lysates were incubated with EV71 virus in the absence or presence of LL-18. Cell lysates were then immunoprecipitated with anti-Flag antibody and the precipitated virus was determined with anti-VP1 antibody.
Coimmunoprecipitation was performed as previously described. Briefly, VP1, VP2, and VP3 were PCR amplified and cloned into pcDNA3.1 with an HA tag. LL-18 or LL-37 encoding oligonucleotides were inserted into an eGFP-expressing construct (pHW200-eGFP). […] After washing with wash buffer (0.05% Triton X-100) six times, samples were analyzed by Western blotting.
Supplementary file ppat.1011967.s004.tif: S4 Fig Compound 12s interferes with virus-SCARB2 interaction. […] Cell lysates were then immunoprecipitated with anti-Flag antibody and the precipitated virus was determined with anti-VP1 antibody. […]

IFN-β = IFN-β production in RD cells (q-RT-PCR); format: cell-based, human
Protocol: For real-time PCR, cells were treated as described, and cellular total RNA was isolated using the Cell Total RNA Isolation Kit (ForeGene, China) according to the manufacturer’s protocol. The cDNA was synthesized using the ProtoScript II First Strand cDNA Synthesis Kit (New England Biolabs). cDNA was then determined with 2×RealStar Green Fast Mixture (GenStar, China) with the following primers: […]
Supplementary file ppat.1011967.s007.tif: S7 Fig Induction of IFN-β production by peptides. (A) RD cells treated with 1.5 μM LL-18 or LL-37 for indicated time and IFN-β production was detected by q-RT-PCR. (B) RD cells treated with EV71 viruses pre-treated with PBS or LL-18 for indicated time and IFN-β production was detected by q-RT-PCR. ns, not significant; **, P<0.01; ***, P<0.001. (TIF) Click here for additional data file.

[2] = system: mouse-adapted EV71 (mEV71); assay: mEV71 infection model in 6-day-old ICR mice; format: in vivo
Protocol: Fig 7 LL-18 inhibits mEV71 infection in vivo. (A) mEV71 was pre-treated with PBS or LL-18 and used to infect 6-day old ICR mice. The survival rate of mice infected with the mEV71 virus with or without LL-18 was recorded. (B) Mice infected with the mEV71 virus with or without LL-18 pre-treatment were sacrificed 1 day post infection (d.p.i.) and viral titers from brain and muscle tissues were determined. ***, P<0.001. (C) H&E staining of muscle tissue from mice infected with the mEV71 virus with or without LL-18. Blue arrows indicate infiltrated neutrophils. Bar, 20μm.
To prepare the mouse-adapted EV71 strain, the parental EV71 virus was intraperitoneally (i.p.) inoculated into 3-day-old ICR mice. Virus was then isolated from the brain tissue and inoculated into RD cells to amplify virus. […] 1×10^9 PFU/ml mEV71 was then incubated with an equal volume of PBS or LL-18 (20 mg/kg) for one hour, and used to infect 6-day-old ICR newborn mice intraperitoneally. Mice were monitored daily to record survival rate. Meanwhile, brain and muscle tissues were collected 1-day post infection for viral titration or H&E staining.
Supplementary file ppat.1011967.s005.tif: S5 Fig LL-18 inhibits mEV71 infection in vivo. (A) 6-day-old ICR mice were infected with parental EV71 or mouse-adapted virus (mEV71) and the mice survival rate was determined. (B) RD cells infected with mEV71 pre-incubated with PBS or LL-18 for 1 hr were determined for virus titer 24 h.p.i. ***, P<0.001. (C) ICR mice infected with mEV71 or mEV71 pre-incubated with the indicated amount of LL-18 were sacrificed at 1 d.p.i. and viral titers from muscle were determined. ns, not significant; ***, P<0.001. (TIF) Click here for additional data file.

Sequence: FRKSKEKIGKLFKRIVQRILDFLRNLV [LL-18]
- temperature of peak SYBR green fluorescence intensity (RNA release) (EV71 virions): 53 °C
- inhibition of EV71 virus binding to SCARB2 [1]: inhibit virus binding to SCARB2 in a dose-dependent manner
- interferon (IFN-β) production after pre-incubation of peptide with viruses (IFN-β; RD cells treated with EV71 pre-treated with LL-18, q-RT-PCR (S7B Fig)): reduced its ability to induce interferon production
- induction of interferon (IFN-β) production by peptide alone (IFN-β; RD cells, 1.5 μM peptide, q-RT-PCR (S7A Fig)): could induce interferon production
- survival rate of infected suckling mice ([2]; 6-day-old ICR mice, mEV71 pre-incubated 1 hour with LL-18 (20mg/kg), intraperitoneal): could increase the sucking mouse survival rate
- viral loads of brain and muscle ([2]; 6-day-old ICR mice, mEV71 pre-incubated with LL-18 (20mg/kg), i.p., 1 d.p.i): significantly decreased the viral loads in both brain and muscle
- inflammatory cell infiltration in muscle (H&E histology) ([2]; 6-day-old ICR mice, mEV71 with LL-18 (20mg/kg)): improved with the administration of LL-18
- viral load in muscle, dose finding ([2]; ICR mice, mEV71 pre-incubated with 20 mg/kg LL-18, 1 d.p.i. (S5C Fig)): could significantly reduce the viral load
